{"source": "patent US11395823B2", "about": "“Topical administration of MEK inhibiting agents for the treatment of skin disorders” (Duke University, priority 2018, dated 2022)", "key": {"K5-CreER.Braf^Ca/+ mice": {"tested_on": "K5-CreER.Braf^Ca/+ mice", "assay": "Topical treatment of Braf mutation-induced skin tumors and inflammation in K5-CreER.Braf^Ca/+ mice", "format": "in vivo", "protocol": "Experiments were conducted that tested whether topical dose trametinib can effectively treat the skin lesions induced by Braf mutation. To do this, Braf mutation was induced in the rear back skins of 2-month old K5-CreER.Braf^Ca/+ mice with 4-OHT, and 7 days later, applied five consecutive daily topical doses of trametinib (see, FIG. 3a).\nBraf mutant animals: K14-Cre and K5-CreER mice were provided by Duke University. These animals were crossed with Tyr-CreER.Braf^Ca+/−.PTEN−/− mice which were provided by Duke University. Genotyping were performed via PCR. For topical induction, the back skins of adult animals were shaved and treated with two consecutive daily doses of 4-OHT (Sigma, 5 mg/ml in ethanol).\nMouse tissues: For H&E staining of mouse skins, 5 μm frozen tissue sections were fixed with ethanol and stained with Hematoxylin and Eosin. For immunostaining, 5 μm frozen tissue sections were fixed with cold methanol, incubated with and a primary antibody against CD8 (Tonbo Biosciences), and detected with a secondary antibody conjugated to Dylight 488 (Invitrogen) followed by counterstaining with Hoechst 33342. The images were obtained with the Olympus imaging system."}, "SKH-1Elite mice": {"tested_on": "SKH-1Elite mice", "assay": "UV-induced skin carcinogenesis", "format": "in vivo", "from_the_text": "UV is a primary cause of melanoma and non-melanoma skin cancer. To assess whether topical trametinib inhibits UV-induced skin carcinogenesis, SKH animals (n=10, 5 male and 5 female) were irradiated biweekly with 160 mJ broad band UVB along with pretreatment of solvent or trametinib.\nUV induction of skin carcinogenesis: Six weeks old hairless SKH-1Elite mice were obtained from (Jackson Laboratory). Animals were subject to UVB irradiation (160-180 mJ dose) 3 times per week for 20 weeks using rayminder model 2 UVB midband lamp M2D24H and UV513AB digital UVA/UVB (280-400 nm) meter of General Tools. Mouse back skins were pretreated before each UV-radiation with 100 μl of solvent (5% DMSO in 95% acetone:olive oil (3:1 mixture) or 10 to 30 μM trametinib (n=5/group/sex)."}, "[1]": {"tested_on": "recipient mouse T-cell alloreactivity", "conditions": "oral administration; cited from earlier work"}, "C57/BL6 mice [2]": {"tested_on": "C57/BL6 mice", "assay": "Imiquimod (IMQ)-induced psoriasis model"}, "C57/BL6 mice [3]": {"tested_on": "C57/BL6 mice", "assay": "DNFB-induced atopic dermatitis model (ear swelling)"}}, "data": [{"compound": "CC(=O)Nc1cccc(-n2c(=O)n(C3CC3)c(=O)c3c(Nc4ccc(I)cc4F)n(C)c(=O)c(C)c32)c1", "note": "[trametinib, N-(3-{3-Cyclopropyl-5-[(2-fluoro-4-iodophenyl)amino]-6,8-dimethyl-2,4,7-trioxo-3,4,6,7-tetrahydropyrido[4,3-d]pyrimidin-1 (2H)-yl}phenyl)acetamide]", "values": [{"measurement": "skin tumors (clinical images)", "setting": "K5-CreER.Braf^Ca/+ mice; five consecutive daily topical doses starting 7 days after 4-OHT, by day 11", "value": "completely regressed"}, {"measurement": "treating oral lesions, topical versus systemic delivery of the same amount", "setting": "K5-CreER.Braf^Ca/+ mice; topical vs systemic", "value": "more effective than systemic delivery"}, {"measurement": "CD8+ immune cells in the dermis (immunostaining)", "setting": "K5-CreER.Braf^Ca/+ mice; topical, five daily doses", "value": "reduced CD8+ immune cells in the dermis"}, {"measurement": "epidermal neoplasia (histological analysis, H&E)", "setting": "K5-CreER.Braf^Ca/+ mice; topical, five daily doses", "value": "regressed epidermal neoplasia"}, {"measurement": "number of tumor nodules", "setting": "SKH-1Elite mice; 10 μM topical pretreatment before each UVB irradiation", "value": "significantly lower number of tumor nodules"}, {"measurement": "number of tumor nodules", "setting": "SKH-1Elite mice; 30 μM topical pretreatment before each UVB irradiation", "value": "significantly lower number of tumor nodules"}, {"measurement": "recipient mouse T-cell alloreactivity", "setting": "[1]", "value": "suppresses recipient mouse T-cell alloreactivity without affecting graft-vs-tumor effects"}, {"measurement": "animal weight loss", "setting": "C57/BL6 mice [2]; 60 μM topical", "value": "did not induce animal weight loss"}, {"measurement": "gross morphological changes of internal organs, including liver, kidney and spleen and lymph nodes", "setting": "C57/BL6 mice [2]; 60 μM topical", "value": "did not induce"}, {"measurement": "PASI score", "setting": "C57/BL6 mice [2]; 60 μM topical, day 3", "value": "reduced the PASI score"}, {"measurement": "PASI score difference to control", "setting": "C57/BL6 mice [2]; 60 μM topical, day 5", "value": "differences were minimized"}, {"measurement": "IMQ-induced epidermal thickening", "setting": "C57/BL6 mice [2]; topical", "value": "reduces IMQ-induced epidermal thickening"}, {"measurement": "clinical appearance of DNFB challenged right ear lobes", "setting": "C57/BL6 mice [3]; 0.2 μM topical", "value": "appeared thickened and inflamed"}, {"measurement": "clinical appearance of DNFB challenged right ear lobes", "setting": "C57/BL6 mice [3]; 20 μM topical", "value": "appeared smooth and normal"}, {"measurement": "DNFB-induced ear swelling", "setting": "C57/BL6 mice [3]; daily topical 0.2, 2, 20 μM, right ear", "value": "reduced by trametinib at a dose response manner"}, {"measurement": "thickness of the control (solvent-treated left) ears", "setting": "C57/BL6 mice [3]; daily topical 0.2-20 μM", "value": "not significantly affected"}, {"measurement": "thickened epidermis and dermal cellular infiltration of DNFB-treated skins (histology)", "setting": "C57/BL6 mice [3]; topical", "value": "normalized"}, {"measurement": "histological appearance of kidney, spleen, and liver tissues", "setting": "C57/BL6 mice [3]; topical dosage", "value": "normal histological appearance"}]}]}
